Test results: patent US20080146556A1, “Method of radio-sensitizing tumors using a radio-sensitizing agent” (Cephalon, Inc., priority 2006, published 2008)
pIC50: −log10 of the molar value. Like-named read-outs stand apart in the source and are kept apart here.

Assays:
recombinant human PARP = recombinant human PARP (Homo sapiens, UniProt P09874); assay: Measurement of PARP enzymatic activity ([32P]NAD+ transfer to protein acceptor); type: biochemical; conditions: 100 μM NAD+
Experimental: PARP activity was monitored by transfer of radiolabeled ADP-ribose units from [^32P]NAD^+ to a protein acceptor such as histone or PARP itself. The assay mixtures contained 100 mM Tris (pH 8.0), 2 mM DTT, 10 mM MgCl2, 20 ug/ml DNA (nicked by sonication), […] histone H1, 5 ng recombinant human PARP, and inhibitor or DMSO (<2.5% (v/v)) in a final volume of 100 uL. The reactions were initiated by the addition of 100 μM NAD^+ supplemented with 2 uCi [^32P]NAD^+/mL and maintained at room temperature for 12 minutes. Assays were terminated by the addition of […] and the radiolabeled precipitate was collected on a 96-well filter plate (Millipore, MADP NOB 50), washed with 25% TCA. The amount of acid-insoluble radioactivity, corresponding to polyADP-ribosylated protein, was quantitated in a Wallac MicroBeta scintillation counter.
Single-point inhibition data were calculated by comparing PARP, VEGFR2, or MLK3 activity in the presence of inhibitor to activity in the presence of DMSO only. Inhibition curves for compounds were generated by plotting percent inhibition versus log10 of the concentration of compound. IC50 values were calculated by nonlinear regression using the sigmoidal dose-response (variable slope) equation in GraphPad Prism as follows:
y=bottom+(top−bottom)/(1+10^(log IC^50^−x)*Hillslope)
where y is the % activity at a given concentration of compound, x is the logarithm of the concentration of compound, bottom is the % inhibition at the lowest compound concentration tested, and top is the % inhibition at the highest compound concentration examined. The values for bottom and top were fixed at 0 and 100, respectively. IC50 values are reported as the average of at least three separate determinations.
Where no IC50 value is represented, data has yet to be determined.

[1] = Plasma levels of Example 6 at Cmax after s.c. dosing of Example 7 in the radio-sensitization studies; type: in vivo, nude mice; conditions: athymic NCR NUM nude, mouse, sc
[2] = test system: U87MG human glioblastoma xenografts; assay: Preliminary radio-sensitizing study of orally administered Example 7; type: in vivo, nude mice
[3] = test system: bone marrow and intestinal mucosa; assay: Bone marrow and jejunal crypt assays for radiation-induced normal tissue toxicity; type: in vivo; conditions: Example 7 30 and 100 mg/kg dose equivalents of Example 6 sc plus 2 Gy radiation x 5 days
Experimental: To evaluate therapeutic gain, Example 7 (30 and 100 mg/kg dose equivalents of Example 6 sc) plus 2 Gy radiation×5 days was evaluated in bone marrow and jejunal crypt assays to determine if Example 7 potentiated radiation-induced normal tissue (NT) toxicity.

[4] = test system: U87MG human glioblastoma xenografts; type: in vivo
[5] = test system: U87MG human glioblastoma xenografts; assay: Initial radio-sensitizing study, non-optimized dosing schedule (7.5 Gy x 3 days, s.c.); type: in vivo, nude mice
[6] = Example 7 30 mg/kg s.c. qd x 21 d plus RT 2 Gy x 5 days

Chain of recombinant human PARP (P09874 whole entry): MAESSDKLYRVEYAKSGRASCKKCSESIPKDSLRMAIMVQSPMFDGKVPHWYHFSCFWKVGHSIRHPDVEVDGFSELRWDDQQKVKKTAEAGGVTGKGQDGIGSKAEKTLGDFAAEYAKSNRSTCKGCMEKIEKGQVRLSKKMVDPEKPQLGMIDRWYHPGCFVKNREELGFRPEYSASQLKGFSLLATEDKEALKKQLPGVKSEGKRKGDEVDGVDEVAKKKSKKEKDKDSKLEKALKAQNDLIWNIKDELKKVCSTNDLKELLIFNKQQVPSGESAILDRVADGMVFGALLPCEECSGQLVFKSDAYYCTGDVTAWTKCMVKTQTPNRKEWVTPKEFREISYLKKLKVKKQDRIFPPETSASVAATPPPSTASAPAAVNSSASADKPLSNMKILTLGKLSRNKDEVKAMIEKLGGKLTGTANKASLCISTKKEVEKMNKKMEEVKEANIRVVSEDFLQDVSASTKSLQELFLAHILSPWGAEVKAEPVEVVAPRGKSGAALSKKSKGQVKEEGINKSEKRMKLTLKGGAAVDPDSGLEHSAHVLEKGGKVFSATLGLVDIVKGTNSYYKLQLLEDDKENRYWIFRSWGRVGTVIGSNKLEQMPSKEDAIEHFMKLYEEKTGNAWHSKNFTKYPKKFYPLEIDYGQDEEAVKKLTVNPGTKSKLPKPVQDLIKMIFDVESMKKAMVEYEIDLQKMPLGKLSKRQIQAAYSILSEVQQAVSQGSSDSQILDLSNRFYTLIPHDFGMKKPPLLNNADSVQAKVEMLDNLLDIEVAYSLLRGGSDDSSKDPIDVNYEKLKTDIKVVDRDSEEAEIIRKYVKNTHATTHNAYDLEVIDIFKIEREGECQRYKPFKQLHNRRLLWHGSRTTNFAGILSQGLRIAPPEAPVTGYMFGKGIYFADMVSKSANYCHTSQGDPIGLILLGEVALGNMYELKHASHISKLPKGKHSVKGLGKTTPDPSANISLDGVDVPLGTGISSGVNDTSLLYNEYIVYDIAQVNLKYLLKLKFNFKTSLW

COc1cccc2[nH]c3c4c(c5c(c3c12)C(=O)NC5=O)CCC4 [Example 6, 7-Methoxy-1,2,3,11-tetrahydro-5,11-diaza-benzo[a]trindene-4,6-dione]
pIC50 (recombinant human PARP): > 7.00 | Cmax ([1]; 30 mg/kg, Example 7 30 mg/kg s.c., fractionated RT study, read-out: Plasma levels of Example 6 at Cmax associated with radio-sensitization efficacy): 5.5 µM | Cmax ([1]; 100 mg/kg, Example 7 100 mg/kg s.c. dose, fractionated RT study, read-out: Plasma levels at Cmax): 21 µM | Cmax ([1]; 100 mg/kg, at 100 mg/kg Example 7 s.c., initial study (7.5 Gy schedule), read-out: Plasma levels of Example 6 at Cmax associated with efficacy): 23 µM

COc1cccc2c1c1c3c(c4c(c1n2CN1CCOCC1)CCC4)C(=O)N(CN1CCOCC1)C3=O [Example 9, 7-Methoxy-5,11-(bis-morpholin-4-ylmethyl)-1,2,3,11-tetrahydro-5,11-diaza-benzo[a]trindene-4,6-dione]
pIC50 (recombinant human PARP): > 7.00

COc1cccc2[nH]c3c4c(c5c(c3c12)C(=O)N(CN1CCN(C)CC1)C5=O)CCC4 [Example 7, 7-Methoxy-5-(4-methyl-piperazin-1-ylmethyl)-1,2,3,11-tetrahydro-5,11-diaza-benzo[a]trindene-4,6-dione]
effect on tumor growth ([2]; Example 7 200 mg/kg dose equivalents of Example 6 p.o. qd x 21 d plus RT 2 Gy x 5 d): no effect on tumor growth as compared to RT alone | effect on tumor growth ([2]; Example 7 300 mg/kg dose equivalents of Example 6 p.o. qd x 21 d plus RT 2 Gy x 5 d): tumor growth stasis starting on day 8 and continuing throughout the study (day 31) | effect on tumor growth ([2]; Example 7 alone, 200 and 300 mg/kg dose equivalents of Example 6 p.o. qd x 21 d): no effect on tumor growth as compared to RT alone | radio-sensitizing effect when administered orally ([2]; oral administration): exerts radio-sensitizing effects when administered orally | potentiation of radiation-induced normal tissue toxicity [3]: did not potentiate radiation toxicity | TGD compared to radiation alone ([4]; Example 7 30 mg/kg s.c. qd x 21 d in combination with RT 2 Gy x 5 days): 15 days | TGD compared to Example 7 alone [4, 6]: 26 days | fold increase in TGD compared to Example 7 alone [4, 6]: 6 fold | fold increase in TGD compared to radiation alone [4, 6]: 4 fold | anti-tumor efficacy ([4]; Example 7 100 mg/kg s.c. with fractionated radiotherapy 2 Gy x 5 days): significant anti-tumor efficacy | mortality ([4]; Example 7 100 mg/kg s.c. with fractionated radiotherapy, by day 11): 80% | effect on tumor growth inhibition, Example 7 alone ([4]; Example 7 alone, 30 mg/kg dose equivalents of Example 6 s.c. qd x 21 days): no effect on tumor growth inhibition | pIC50 (recombinant human PARP): > 7.00 | tumor growth delay (TGD) ([5]; Example 7 (100 mg/kg s.c. qd) with 7.5 Gy radiation for 3 days, vs vehicle): 14.8 days | time for tumors to reach 2000 mm3 ([5]; Example 7 (100 mg/kg s.c. qd) with 7.5 Gy radiation for 3 days, radiation alone 16.1 days): 24.8 days | effect on tumor growth as a single agent ([5]; Example 7 alone, 100 mg/kg dose equivalents of Example 6, s.c., QD for 5 days): no effect on tumor growth | time for tumors to reach a tumor volume of 2000 mm3 ([5]; Example 7 only, 100 mg/kg dose equivalents of Example 6, s.c., QD 5 days, vehicle 10.0 days): 9.6 days

COc1cccc2[nH]c3c4c(c5c(c3c12)C(=O)N(CN1CCOCC1)C5=O)CCC4 [Example 10, 7-Methoxy-5-(morpholin-4-ylmethyl)-1,2,3,11-tetrahydro-5,11-diaza-benzo[a]trindene-4,6-dione]
pIC50 (recombinant human PARP): > 7.00
